# Assay results from patent US10894948B2, “Resetting pluripotent stem cells” (CAMBRIDGE ENTERPRISE LIMITED, priority 2014, dated 2021).
# “Also recorded” adds a separate entry of the source.
# Assays:
# [1] = test system: reset cells; test: Colony forming assay (alkaline phosphatase staining) in t2iL+Gö; format: cell-based, human; conditions: transgene-free reset cells in t2iL+Gö plus inhibitor, without ROCKi
# Procedure: E. Colony forming assay. Cells maintained in t2iL+Gö were seeded without ROCKi at 2000 cells/well in 12 well dishes in t2iL+Gö plus FGF receptor inhibitor PD17 or TGF-β/activin receptor inhibitor A83-01. Colonies were stained for alkaline phosphatase after 7 days.
# G. Colony forming assays on transgene-free reset cells. Cells maintained in t2iL+Gö were seeded at 2000 cells/well in […] in t2iL+Gö plus FGF receptor inhibitor PD17 or TGF-b/activin receptor inhibitor A83-01 and without ROCKi. Colonies were stained for alkaline phosphatase after 7 days.
# Reset H9 cells maintained in t2iL+Gö were seeded without ROCKi at 2000 cells/well in 12 well dishes in t2iL+Gö. FGF receptor inhibitor PD173074 or TGF-β/activin receptor inhibitor A83-01 were added. Colonies were stained for alkaline phosphatase after 7 days.
# Colony forming assays were carried out on MEF feeder cells by plating 1000 cells per well in 24-well plates, 2000 cells for 12-well plates and 5000 cells for 6-well plates. ROCKi was used for conventional but not reset cells. Activin/TGF β receptor inhibitor A83-01 was used at 0.25 μM where indicated. Plates were fixed and stained for alkaline phosphatase (Sigma-Aldrich, cat. 86R-1KT). Plates were scanned using a CellCelector (Aviso) or cellSens Dimension (Olympus).
# [2] = test system: H9 and Shef6 cells; test: Resetting by transient transfection with NANOG and KLF2 plasmids; format: cell-based, human; conditions: pilot experiments
# Description: For transient expression and resetting we first generated H9 and Shef6 cells with an EOS-GFP/puro^R reporter (Hotta et al., 2009) introduced in a piggyBac vector. We have observed that in the PB rather than lentiviral vector context this reporter is initially expressed heterogeneously in conventional PSC and progressively silenced, but is re-expressed during resetting. We used NANOG and KLF2 expression constructs driven by the CAG promoter harbouring a blasticidin resistance gene. One well of a 6-well plate was transfected as above with 3 μg of non-linearised NANOG and KLF2 plasmids. Two days later, medium was switched to N2B27 with PD173074 (PD17, 0.5 μM), PD03 (0.5 μM) and hLIF. At day 4, cells were retransfected and on day 8 medium was changed to t2iL+Gö. Puromycin selection (0.5 μg/ml) was applied from day 12 onwards for two passages. Single colonies were picked on passage 4 or 5. […]
# We investigated the timespan for resetting by inducing NANOG/KLF2 expression with DOX for finite intervals then assaying colony formation in t2iL+Gö. […] These were indistinguishable in morphology from cultures in which transgenes […] or from reset cells generated previously with inducible transgenes. qRT-PCR and immunostaining confirmed sustained expression of ground state pluripotency factors (FIG. 7E, F). […]
# [3] = test system: reset cells; test: Expansion of reset cells in different CH concentrations; format: cell-based, human
# Procedure: C. Expansion of reset cells in different CH concentrations. Cells were plated at 5×10^4 cells per well and cultured for 4 days in PD03 (1 μM) with LIF, and 0, 1, or 3 μM CH. Y axis indicates cell number (×10^4).
# Moderating GSK3 inhibition improves self-renewal of rat ES cells (Chen et al., 2013a; Meek et al., 2013) and we have also observed that combination of Gö6983 with the GSK3 inhibitor CH is unfavourable for mouse ESC propagation (J. Wray and A S, unpublished). We therefore titrated CH. […] Henceforth cells were maintained in titrated 2i with LIF and Gö6983 (t2iL+Gö).
# [4] = test system: reset cells and conventional PSC; test: Oxygen consumption rate (SeaHorse extracellular flux); format: cell-based, human; conditions: injected during assay
# Procedure: A. Oxygen consumption rate (OCR). Measurements obtained using a SeaHorse Extracellular Flux analyser.
# Oxygen consumption was measured using an XF^e24 Analyzer (SeaHorse Bioscience) according to the manufacturer's protocol. In brief, SeaHorse plates were pre-treated by coating with laminin and 80,000 cells were seeded on each well the night before the experiment. Culture media were exchanged for XF Base Medium (SeaHorse bioscience) supplemented with 2 mM pyruvate and 20 mM glucose with an adjusted pH of 7.4 and cells incubated at 37° C. in atmospheric CO2 for one hour. Oligomycin (2 μM), FCCP ([…]), Antimycin (1 μM) and Rotenone (1 μM) were injected during assay (XF cell mito stress test kit, Seahorse Bioscience). Mitochondria were stained with Mito Tracker Green FM (final concentration 50 nM, Life Technologies) or Tetramethylrhodamine, ethyl ester (TMRE, final concentration 20 nM, Life Technologies) in the relevant medium for 10 minutes and analysed by confocal microscopy.
# [5] = test system: reset H9 cells; test: Propagation of reset cells in 2iL upon DOX withdrawal; format: cell-based, human; conditions: 5 μM added to 2iL upon DOX withdrawal
# Procedure: B. PKC inhibitor Gö6983 maintains the reset state in the absence of transgene expression. Upon DOX withdrawal cells in 2iL degenerated. […] Note that intrinsic fluorescence of Gö produces a faint red background signal.
# To induce resetting, transfected PSC were dissociated with trypsin and replated as single cells in the presence of ROCK inhibitor. Doxycycline (DOX, 1 μM) was added the next day and 24 h later medium was changed to N2B27 medium (Ndiff227, StemCells Inc., SCS-SF-NB-02) with 1 μM PD0325901 (PD03), human LIF (prepared in-house), DOX and either 3 μM CHIR99021 (2iL+DOX) or 1 μM CHIR99021 (t2iL+DOX). Medium was changed every day. Cells were split every five to seven days after dissociation to single cells with Accutase (Life Technologies) for 10 minutes. Around two weeks after DOX induction, cells were transferred to t2iL+5 μM PKC inhibitor Gö6983 (Sigma-Aldrich) (t2iL+Gö). Reset cells cultured in t2iL+Gö were also passaged every five to seven days as single cells. Cells transferred to t2iL+Gö proliferate slowly for the initial couple of passages after withdrawal of DOX. Cells were maintained on MEF feeders throughout.
# These cultures expressed OCT4 (FIG. 8) and expanded continuously, although proliferation was reduced and morphology less consistent compared to DOX-maintained cells.
# [6] = test system: reset cells; test: Feeder-free culture of reset cells on Matrigel or Laminin 511-E8; format: cell-based, human; conditions: Gö reduced to 2 μM, ROCKi added prior to passaging
# Procedure: For feeder-free culture plates were coated overnight at 4° C. with either diluted BD Matrigel hES-qualified Matrix (1:30) or Laminin 511-E8 (iMatrix-511; Nippi) at […] (Nakagawa et al., 2014). Cells were dissociated in the presence of ROCKi and plated in t2iL with Gö reduced to 2 μM.
# Based on observations with mouse ESC we realised that Gö concentration was critical without buffering by feeders. We therefore reduced Gö to 2 μM and also added ROCKi prior to passaging. […] On both substrates cells could be expanded, albeit more slowly on laminin, and ground state pluripotency factor expression was retained over several passages (FIG. 1L).
# [7] = test system: reset iH9-EOS cells; test: Culture of reset cells in t2iL with Ro-31-8425 replacing Gö6983; format: cell-based, human; conditions: 0.1 μM in t2iL, 25 days (7 passages)
# Procedure: FIG. 41 Bright field and fluorescence images of reset iH9-EOS cells after culture for 25 days (7 passages) in […] with Ro-31-8425 (0.1 μM) replacing Gö6983.
# [8] = test system: Human ES cells Shef6 and H9, which carry the EOS reporter; test: Resetting without transgenes, EOS-GFP reporter (FACS, colonies); format: cell-based
# Procedure: PDL-HDACi comprises mTeSR™-E6 basal medium (Stem Cell Technologies) supplemented with 1 μM PD0325901, human LIF (10 ng/ml, prepared in house) and a
# HDAC inhibitor such as valproic acid sodium salt (VPC, 0.5-1 mM, Sigma,) or sodium butyrate (SB, 0.5-1 mM, Sigma).
# Optionally a Wnt pathway inhibitor such as XAV939 (2 μM) may be included, constituting PDXL.
# Human ES cells Shef6 and H9, which carry the EOS reporter [Hotta], were plated at a density of 50,000 to 100,000 cells per well of a six well tissue culture dish in KSR/FGF medium supplemented with 10 μM ROCK inhibitor (Y-27632). The day after medium was replaced with resetting medium (PDL-HDACi or PDXL-HDACi) for the following three days. Thereafter the cells were maintained in naïve maintenance medium, T2ilGö-FROCKi (FIG. 30).
# EOS reporter contains a GFPIresPuro cassette driven by LTR of early transposon and a trimer of mouse Oct4 distal enhancer. The EOS reporter in majority of conventional human ES cells is expressed at low to undetectable level by microscope. More than 80 percent of cells do show low to moderate GFP expression by flow cytometry analysis (FACS) (FIG. 31). The resetting medium induced vast cell death and differentiation three days after. The dome shaped GFP positive colonies appears around Day5 to Day7 and peaked after day10 to day 12 (FIG. 32, FIG. 33, FIG. 34). The colonies can then be passaged in bulk or picked singly using TrypLE™ express. Puromycin selection is applied for one or two passages to exclude differentiated cells if needed. The reset cells expressed elevated naïve state markers, TFCP2L1 and DPPA3 from Day7 during resetting (FIG. 35). Two pools, iS6-N and iS6-E, have been maintained over 15 passages and are karyotypically normal by G-band analysis. They form embryoid body readily in low adhesive 96 well plates and up-regulate differentiation markers (FIG. 36).
compound,measurement,setting,value
Cc1cccc(-c2nn(C(=S)Nc3ccccc3)cc2-c2ccnc3ccccc23)n1 [A83-01],proliferation without differentiation,[1],continued to proliferate without differentiation
Cc1c[nH]c(-c2cnc(NCCNc3ccc(C#N)cn3)nc2-c2ccc(Cl)cc2Cl)n1 [CH],effect on the resetting process,[2],appeared inhibitory to the resetting process
same,growth rate and colony morphology,"[3]; 1 μM CH, with PD03 (1 μM), LIF and Gö6983",restored growth rate while maintaining morphology
same,growth rate and colony morphology,[3]; complete absence of CH,"colony morphology improved in the complete absence of CH, but growth rate was reduced"
N#CC(C#N)=NNc1ccc(OC(F)(F)F)cc1 [FCCP],"oxygen consumption rate (OCR), reset cells versus conventional PSC",[4],greater OCR increase in reset cells than conventional PSC
"COc1ccc2c(c1)c(C1=C(c3c[nH]c4ccccc34)C(=O)NC1=O)cn2CCCN(C)C [Gö6983, 3-[1-[3-(dimethylamino)propyl]-5-methoxy-1H-indol-3-yl]-4-(1H-indol-3-yl)-1H-pyrrole-2,5-dione]",maintenance of the reset state in the absence of transgene expression,[5],maintained cell proliferation and compact colony morphology; also recorded: allowed maintenance of compact refractile colonies without Venus expression
same,undifferentiated colony formation without feeders,[6],could form undifferentiated colonies on Matrigel or laminin 511-E8
CCN(CC)CCCCNc1ncc2cc(-c3cc(OC)cc(OC)c3)c(NC(=O)NC(C)(C)C)nc2n1 [PD17],effect on the resetting process,[2],might favour resetting
Cn1cc(C2=C(c3c4n(c5ccccc35)CCC(CN)C4)C(=O)NC2=O)c2ccccc21 (stereo not shown) [Ro-31-8425],use as alternative PKC inhibitor for culture of reset cells,[7],can be used as an alternative to Gö6983
"CCCC(=O)[O-].[Na+] [Sodium butyrate, sodium butyrate]",resetting induction (GFP expression by FACS),[8]; 7 days after resetting,potent resetting inducer
"CCCC(CCC)C(=O)[O-].[Na+] [VPC, valproic acid sodium salt]",resetting efficiency (GFP expression by FACS),"[8]; three days VPC treatment, 7 days after resetting, increase from around 1%",~3%
Oc1nc(-c2ccc(C(F)(F)F)cc2)nc2c1CSCC2 [XAV939],colony yield / resetting efficiency,[8]; 2 μM in transgene-free resetting medium (PDXL),colony yield may be higher for some cell lines but colonies are also more heterogeneous; also recorded: could significantly increase resetting efficiency
CC[C@H]1/C=C/C=C/C[C@@H](C)[C@H](O)[C@@](C)(O)C(=O)[C@@H](C)[C@H](O)[C@@H](C)C(=O)[C@@H](C)[C@H](O)[C@@H](C)/C=C/C(=O)O[C@@H]2[C@H](C)[C@H](CC1)O[C@]1(CC[C@H](C)[C@H](C[C@@H](C)O)O1)[C@H]2C [oligomycin],"oxygen consumption rate (OCR), reset cells versus conventional PSC",[4],difference was minimised
